The values that follow come from patent US8742113B2, “Furanone derivative” (SBI Biotech Co., Ltd., priority 2011, dated 2014).

A value given as a limit tells only on which side of the number the result lay.

The target in assay [1] is human Cdc7/human ASK complex protein (Homo sapiens (Human), UniProt O00311). Put plainly: Inhibitory effect on Cdc7 protein kinase (MSA assay kit). Format: biochemical. The note with it: human Cdc7/human ASK complex, FITC-labeled MCM2 peptide substrate, reaction 5 hours at room temperature; read-out: Test Example 1 Cdc7 IC50 value. How it is done: [Inhibitory Effect on Cdc7 Protein Kinase]
Measurement of kinase activity was carried out using an MSA assay kit (QuickScout Screening Assist™ Kit, Carna Biosciences, Inc.).
Assay buffer (20 mM HEPES, 0.01% Triton X-100™, 2 mM dithiothreitol, pH 7.5) was used to prepare a substrate mixture solution comprising 4 μM of a kinase-reaction substrate (FITC-labeled MCM2 peptide), 40 mM MgCl2, and 20 μM ATP.
The enzyme supplied in the kit (human Cdc7/human ASK complex protein) was diluted in the assay buffer so as to be at 7 nM, thereby preparing an enzyme solution.
The stock solution of each test compound was diluted in DMSO to prepare diluted DMSO solutions of 10 concentrations (0.00003 mM, 0.0001 mM, 0.0003 mM, 0.001 mM, 0.003 mM, 0.01 mM, 0.03 mM, 0.1 mM, 0.3 mM, 1 mM), each of which was further diluted 25 times in the assay buffer to make a drug solution (a solution containing 4% DMSO).
The kinase reaction was performed in wells of a polypropylene 384-well plate in which 5 μl of each of the drug solutions or of a solvent (assay buffer containing 4% DMSO), 5 μl of the substrate mixture solution, and 10 μl of the enzyme solution were mixed. The assay buffer, instead of the enzyme solution, was added to blank wells. After the reaction at room temperature for 5 hours, 60 μl of the termination buffer supplied in the kit was added to each well to stop the reaction. The percent inhibition of each reaction was determined using a LabChip EZ Reader II system (manufactured by Caliper Life Sciences), according to the protocol provided with the assay kit. In this case, the peak heights of the separated substrate and the phosphorylated substrate were represented as S and P, respectively, and the percent inhibition (%) by a tested compound was calculated according to the following formula: Percent inhibition(%)=(1−(C−A)/(B−A))×100 wherein A denotes P/(P+S) for a blank well, B denotes P/(P+S) for a solvent well, and C denotes P/(P+S) for a compound-added well.
The IC50 value of a tested compound was calculated by regression analysis of the percent inhibition values versus the (logarithmic) concentrations of the tested compound.

Assay [2] concerns MCM2 phosphorylation in COLO205 cells. Briefly: Inhibitory effect on MCM2 phosphorylation using cells (Western blot). It is filed as cell-based. The note with it: Homo sapiens, COLO 205, 0.1 μM test compound, 24 hours, class by percent phosphorylation of MCM2, read-out: Test Example 2 Inhibitory effect on MCM2 phosphorylation. The method, then:
[Inhibitory Effect on Phosphorylation Using Cells]
COLO205 cells derived from human colon adenocarcinoma (RCB2127, RIKEN BRC) were cultured in 10 cm dishes using RPMI-1640 medium (SIGMA, R8758) supplemented with 10% FCS (Equitech-bio) and 5% penicillin/streptomycin (GIBCO, 15140). After the cells were cultured to a confluence of 70 to 90%, the medium was removed, and the cells were treated with trypsin (2 mL, TrypLE Express, GIBCO, 12604-021) and then harvested using a new medium.
COLO205 cells were seeded in 6-well plates (FALCON, 35046) to 2.5×10^5 cells (1 ml) per well and cultured overnight in a 5% CO2 incubator. A drug solution, which was prepared by adding 1.5 μl of a 0.1-mM stock solution in DMSO of a test compound to 500 μl of medium, was added to each well (to a final drug concentration of 0.1 μM), and then cultured for another 24 hours.
Cells were cultured for 24 hours in the presence of a test compound, harvested using a similar way as described above, washed with PBS, and then pelletized and stored at −80° C. The frozen cells were thawed, subsequently suspended immediately in 2×SDS-PAGE electrophoresis buffer (1×10^5 cells per 10 μl), and heated at 95° C. for 10 minutes, leading to the dissolution and denaturation of the proteins. The resulting sample solutions were subjected to SDS-PAGE using a 5-20% gradient acrylamide gel (e-PAGEL (5-20%), ATTO, E-T520L). After the electrophoresis was completed, the gel was immersed in tris-glycine buffer supplemented with 20% methanol, and the proteins in the gel were transferred onto a PVDF membrane (MILLIPORE, Immobilon-P, IPVH00010) using a semi-dry transfer apparatus (TRNS-BLOT SD SEMI-DRY […] CELL, BIO RAD).
The transferred PVDF membrane was blocked with 5% skim milk (Difco Skim Milk, BD, 232100), and then subjected to reaction with an anti-MCM2 goat antibody (N-19, Santa Cruz, sc-9839) or anti-phosphorylated MCM2 rabbit antibody (S53) (Bethyl, A300-756A) as a primary antibody and additionally with an anti-α tubulin mouse antibody (Clone DM 1A, SIGMA, 9026) as an internal control. Each band was detected by chemiluminescence using an HRP-labeled anti-goat IgG donkey antibody (Santa Cruz, sc2020), anti-rabbit IgG sheep antibody (Roche, 12015218001), or anti-mouse IgG donkey antibody (Jackson ImmunoResearch, 715-035-151) as a secondary antibody. The combinations of and the diluted concentrations of the primary and secondary antibodies were as indicated below.
The bands which were detected were normalized using the amount of endogenous α-tubulin as a reference, and the percent phosphorylation of MCM2 was calculated for each of the tested compounds. Their inhibitory effects on MCM2 phosphorylation were indicated by a triple asterisk (***) in the case where the percent phosphorylation of MCM2 was less than 20%, by a dual asterisk (**) in the case where the percent phosphorylation of MCM2 was not less than 20% and less than 50%, and by a single asterisk (*) in the case where the percent phosphorylation of MCM2 was not less than 50% and less than 70%.
For orientation: A western blot detects proteins with antibodies after separation by electrophoresis.

human Cdc7/human ASK complex protein, sequence (O00311 whole entry): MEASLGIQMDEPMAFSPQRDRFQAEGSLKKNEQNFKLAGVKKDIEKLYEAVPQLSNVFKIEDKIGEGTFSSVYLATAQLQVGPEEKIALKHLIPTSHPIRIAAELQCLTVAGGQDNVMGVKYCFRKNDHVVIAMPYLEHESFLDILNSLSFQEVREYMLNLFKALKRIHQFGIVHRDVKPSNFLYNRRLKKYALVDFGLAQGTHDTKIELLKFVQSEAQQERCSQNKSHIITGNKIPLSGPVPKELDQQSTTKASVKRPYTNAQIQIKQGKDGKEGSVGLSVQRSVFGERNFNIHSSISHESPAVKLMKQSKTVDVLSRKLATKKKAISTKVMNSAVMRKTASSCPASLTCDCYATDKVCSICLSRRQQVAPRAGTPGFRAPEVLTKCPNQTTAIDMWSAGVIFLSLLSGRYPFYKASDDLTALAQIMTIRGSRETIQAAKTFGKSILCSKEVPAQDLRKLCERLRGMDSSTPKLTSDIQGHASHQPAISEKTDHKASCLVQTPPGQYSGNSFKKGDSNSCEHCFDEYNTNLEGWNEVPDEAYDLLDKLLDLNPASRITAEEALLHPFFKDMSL
human Cdc7/human ASK complex protein, sequence (Q9UBU7 whole entry partner): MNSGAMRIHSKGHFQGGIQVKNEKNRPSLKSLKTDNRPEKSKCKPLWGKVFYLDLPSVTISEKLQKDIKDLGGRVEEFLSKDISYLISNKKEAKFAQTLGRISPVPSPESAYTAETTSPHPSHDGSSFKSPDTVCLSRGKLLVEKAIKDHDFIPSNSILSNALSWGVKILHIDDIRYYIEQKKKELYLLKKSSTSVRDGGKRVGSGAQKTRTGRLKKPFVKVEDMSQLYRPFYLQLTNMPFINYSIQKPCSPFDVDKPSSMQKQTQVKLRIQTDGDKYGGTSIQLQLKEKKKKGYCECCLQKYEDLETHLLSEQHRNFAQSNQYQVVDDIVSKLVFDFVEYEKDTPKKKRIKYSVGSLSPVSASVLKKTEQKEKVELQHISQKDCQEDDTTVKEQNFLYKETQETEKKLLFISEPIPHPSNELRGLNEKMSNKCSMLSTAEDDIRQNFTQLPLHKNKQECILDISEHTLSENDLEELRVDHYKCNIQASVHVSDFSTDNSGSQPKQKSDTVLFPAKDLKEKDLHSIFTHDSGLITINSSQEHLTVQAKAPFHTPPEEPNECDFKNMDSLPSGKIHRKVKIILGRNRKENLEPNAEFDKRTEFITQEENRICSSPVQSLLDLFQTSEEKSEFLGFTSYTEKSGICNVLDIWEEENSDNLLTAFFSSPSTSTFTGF

For the compound `CCOC(=O)C1=C(Nc2ccc(NCCO)cc2C)O/C(=C\c2c[nH]c3ncccc23)C1=O` [Example 126, Ethyl 5-[(1H-pyrrolo[2,3-b]pyridin-3-yl)methylene]-2-({4-[(2-hydroxyethyl)amino]-2-methylphenyl}amino)-4-oxo-4,5-dihydrofuran-3-carboxylate], the IC50 (commonly the concentration at which inhibition is half-maximal) in assay [1] turned out to be 3 nM. For the same compound, the inhibition at 0.1 µM in assay [2] is less than 20%.
For `O=C1C=C(NC2CCCCCC2)O/C1=C\c1c[nH]c2ncccc12` [Example 226, 2-[(1H-Pyrrolo[2,3-b]pyridin-3-yl)methylene]-5-(cycloheptylamino)furan-3(2H)-one], in that order: 4 nM and less than 20%.
On to `CN(C)CCOC(=O)C1=C(Nc2ccc(F)cc2F)O/C(=C\c2c[nH]c3ncccc23)C1=O` [Example 91, 2-(Dimethylamino)ethyl 5-[(1H-pyrrolo[2,3-b]pyridin-3-yl)methylene]-2-[(2,4-difluorophenyl)amino]-4-oxo-4,5-dihydrofuran-3-carboxylate], for which the IC50 in assay [1] was determined as 4 nM. Also, in assay [2], the inhibition at 0.1 µM is less than 20%.
